Laboratory results taken from patent publication US7211278B2, “Treating method for suppressing hair growth” (Kao Corporation, priority 1999, dated 2007).
Peptide text beside a SMILES is read from it.

Assays:
[1] = molecular target: T1, neutral endopeptidase of cultivated human fibroblast (Homo sapiens, UniProt P08473); assay: Inhibition test on neutral endopeptidase activity of cultivated human fibroblast; type: biochemical; conditions: enzyme solution from human fibroblast, substrate glutaryl-Ala-Ala-Phe-4-methoxy-2-naphthylamine
T1 construct: followed by ultrasonic pulverization, whereby an enzyme solution was obtained; host or cells: normal human fibroblasts, Triton X-100 lysate after sonication
T1 sequence (P08473 whole entry): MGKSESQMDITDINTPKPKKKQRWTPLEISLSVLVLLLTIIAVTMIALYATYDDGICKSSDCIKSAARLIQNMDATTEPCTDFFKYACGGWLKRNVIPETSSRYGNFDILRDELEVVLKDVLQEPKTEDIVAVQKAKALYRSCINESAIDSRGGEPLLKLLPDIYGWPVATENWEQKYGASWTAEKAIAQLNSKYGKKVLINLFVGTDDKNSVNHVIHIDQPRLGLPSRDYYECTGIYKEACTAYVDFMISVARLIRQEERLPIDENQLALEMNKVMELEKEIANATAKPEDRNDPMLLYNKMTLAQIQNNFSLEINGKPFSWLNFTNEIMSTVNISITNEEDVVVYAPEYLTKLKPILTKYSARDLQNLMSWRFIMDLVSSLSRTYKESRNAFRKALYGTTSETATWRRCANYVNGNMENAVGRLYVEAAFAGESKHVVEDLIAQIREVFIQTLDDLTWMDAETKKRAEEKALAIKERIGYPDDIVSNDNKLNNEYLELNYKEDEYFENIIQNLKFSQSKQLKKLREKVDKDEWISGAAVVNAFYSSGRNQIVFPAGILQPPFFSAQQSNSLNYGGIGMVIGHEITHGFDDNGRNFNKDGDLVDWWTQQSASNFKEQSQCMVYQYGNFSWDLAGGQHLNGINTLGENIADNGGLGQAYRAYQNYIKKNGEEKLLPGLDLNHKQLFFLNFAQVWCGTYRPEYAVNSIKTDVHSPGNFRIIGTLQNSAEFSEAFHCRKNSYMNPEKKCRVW
Description: Test 1 Inhibition Test on Neutral Endopeptidase Activity of Cultivated Human Fibroblast
Normal human fibroblast commercially available from Dainippon Pharmaceutical Co., Ltd. was subcultured on a DME medium containing 10% bovine fatal serum and provided for the present test. The cells peeled by a rubber-policeman from a Petri dish were floated in a phosphate-buffered physiological saline, collected by a low-velocity centrifuge, and washed three times with the same physiological saline. The cells were floated in a 0.1% Triton X-100/0.2M tris-HCl buffer (pH 8.0), followed by ultrasonic pulverization, whereby an enzyme solution was obtained.
The enzyme activity was measured as follows: To 100 μL of an MES buffer (100 mM, pH 6.5) added with sodium chloride (300 mM), were added 2 μL of the enzyme solution, 1 μL of a solution of the invention compound and, as a substrate for the measurement of enzyme activity, 1 μL of 20 mM glutalyl-Ala-Ala-Phe-4-methoxy-2-naphthylamine, followed by reaction at 37° C. for 1 hour. Phosphoramldon was added to the reaction mixture to give its final concentration of 0.4 μM and then, the reaction was terminated. Aminopeptidase M having a final concentration of 20 mU was added to the reaction mixture and the resulting mixture were reacted at 37° C. for 15 minutes. The amount of the resulting 4-methoxy-2-naphthylamine was determined by measuring the fluorescent strength at excited wavelength of 340 nm and fluorescent wavelength of 425 nm by a fluorospectrophotometer and % inhibition of the compound against enzyme activity was determined.

C3H mice = assay: Hair growth test (2) using mice; type: in vivo
Protocol: (1) Preparation of a Test Sample
Each of Compounds 1 to 3 and 7 was dissolved in a 50% ethanol solution, whereby a 1 mM solution was prepared.
Papain powder (produced by CALBIOCHEM-NOVABIOCHEM CORPORATION) was dissolved in purified water to prepare a 2% aqueous solution, followed by the addition of an equal amount of ethanol to prepare a 1% ethanol solution.
Trypsin powder (produced by Sigma Aldrich Corporation) was dissolved in Hanks' Balanced Salt Solution (produced by Gibco BRL) having 1 mM EDTA-4Na dissolved therein, followed by the addition of an equal amount of ethanol to prepare a 1% ethanol solution.
Chymotrypsin powder (produced by Sigma Aldrich Corporation) was treated in a manner similar to that employed for trypsin, whereby a 1% ethanol solution was prepared.
The back of 6-week-old C3H mice (each group consisting of 5 mice) was, shaved by 2×4 cm^2 by electric hair clippers or an electric shaver so as not to injure its skin. The sample was applied in an amount of 100 μL/once to the shaved portion twice a day for 4 weeks. To a control group, only a solvent was applied. Three weeks after depilation, the picture of the shaved portion was taken at a fixed magnification in order to observe the regrowth hair and the area of the hair regrowth (area of regrowth hair/shaved area) was compared with that of the control group by using an image analyzer.

[2] = compound 1 mM alone (Solvent column), 100 μL twice a day on shaved back
[3] = compound 1 mM combined with Papain 1%, 100 μL twice a day
[4] = proteolytic enzyme 1% alone (Solvent), 100 μL twice a day

CCOC(=O)CNC(=O)CC(=O)OCC [Compound 8]
inhibition at 1000 µM ([1]; concentration 1 mM): 23.8 ± 2.7%

CC(C)CC(NP(=O)(O)CCc1ccccc1)C(=O)NC(Cc1c[nH]c2ccccc12)C(=O)O (centres unmarked) [Compound 2]
Hair growth inhibition 3 weeks after depilation (C3H mice; [2]): 59.1 | Hair growth inhibition 3 weeks after depilation (C3H mice; [3]): 80.3

O=C(O)CNC(=O)C(Cc1ccccc1)C(=O)O (centres unmarked) [Compound 10]
inhibition at 100 µM ([1]; concentration 0.1 mM): 91.2 ± 3.7%

Chymotrypsin
Hair growth inhibition 3 weeks after depilation (C3H mice; [4]): 20.1

Phe-Leu
% inhibition ([1]; concentration 1 mM): 72.9%

Trypsin
Hair growth inhibition 3 weeks after depilation (C3H mice; [4]): 25.6

O=C(O)CCNC(=O)C(Cc1ccccc1)C(=O)O (centres unmarked) [Compound 12]
inhibition at 100 µM ([1]; concentration 0.1 mM): 69.5 ± 4.3%

Phe-Asp
% inhibition ([1]; concentration 1 mM): 85.4%

Phe-Gly
% inhibition ([1]; concentration 1 mM): 49.4%

CCOC(=O)CNC(=O)C(Cc1ccccc1)C(=O)OCC (centres unmarked) [Compound 9]
inhibition at 100 µM ([1]; concentration 0.1 mM): 74.5 ± 9.3%

Asp-Phe
% inhibition ([1]; concentration 1 mM): 45.7%

COC(=O)[C@H](Cc1ccccc1)NC(=O)[C@@H](N)CC(=O)O [Aspartame, Asp-Phe-OMe (aspartame)] (H-Asp-Phe-OMe)
inhibition at 1000 µM ([1]; concentration 1 mM): 30.2%

O=C(O)CC(=O)N[C@@H](Cc1ccccc1)C(=O)O [Compound 13]
inhibition at 1000 µM ([1]; concentration 1 mM): 49.3 ± 1.2%

O=C(O)CCNC(=O)C(CS)Cc1ccccc1 (centres unmarked) [Compound 7]
Hair growth inhibition 3 weeks after depilation (C3H mice; [2]): 59.7 | Hair growth inhibition 3 weeks after depilation (C3H mice; [3]): 77.9

CCOC(=O)CNC(=O)C(Cc1ccc(-c2ccccc2)cc1)C(=O)OCC (centres unmarked) [Compound 11]
inhibition at 100 µM ([1]; concentration 0.1 mM): 85.7 ± 2.2%

Phe-Phe
% inhibition ([1]; concentration 1 mM): 85.7%

Phe-β-Ala
% inhibition ([1]; concentration 0.1 mM): 92.6%

B1: Papain: proteolytic enzyme, papain powder (CALBIOCHEM-NOVABIOCHEM), 1% ethanol solution (protein, UniProt P00784 134-345, looked up)
Papain: IPEYVDWRQKGAVTPVKNQGSCGSCWAFSAVVTIEGIIKIRTGNLNEYSEQELLDCDRRSYGCNGGYPWSALQLVAQYGIHYRNTYPYEGVQRYCRSREKGPYAAKTDGVRQVQPYNEGALLYSIANQPVSVVLEAAGKDFQLYRGGIFVGPCGNKVDHAVAAVGYGPNYILIKNSWGTGWGENGYIRIKRGTGNSYGVCGLYTSSFYPVKN
Hair growth inhibition 3 weeks after depilation (C3H mice; [4]): 17.3
